We go through five compounds from patent US9163035B2, “Melonine bisindole compounds, pharmaceutical compositions, preparation method and use thereof” (Kunming Institute of Botany, The Chinese Academy of Sciences, priority 2009, dated 2015).

Where two headings read alike, the source gives them in different places.

Series [1] concerns SK-BR-3, human breast cancer cell strain. Briefly: IC50 test on tumor cells (MTT), SK-BR-3. The format is cell-based. Particulars: SK-BR-3, MTT, 48 h, read-out: Half Inhibitory concentrations (IC50) on human tumor cell strain growth. Here is the method: (§1) The melonines A, B, C and D as prepared in Example 1 were separately dissolved with dimethyl sulfoxide (DMSO) to form 1 mg/ml storage solutions, stored away from light for standby use.
(§2) Cisplatin was used as positive control.
(§3) (1) Inoculating cells: preparing cell suspension with culture medium comprising 10% fetal bovine serum (DMEM or RMPI1640), inoculating 96 wells plate with 10000-20000 cells per well (100 μl per well); if adherent cells are needed, inoculation and culture will be conducted 12 h in advance.
(§4) (2) adding a solution of compound to be tested (compound monomer of fixed concentration 40 μM for primary screening, crude extract of 100 μg/ml for primary screening, setting 5 concentrations for gradient repetitive screening for those compounds with a tumor cell growth inhibition rate of about 50% at the concentration for primary screening), final volume of 200 μl per well, and setting 3 repetitive wells for each treatment.
(§5) (3) Developing: culturing at 37° C. for 48 h, adding 20 μl of MTT solution to each well, continually incubating for 4 h, terminating cultivation, carefully discarding supernatant 100 μl to avoid cell lose, adding 20% SDS 100 μl to each well, incubating overnight (37° C.) to completely dissolve crystal.
(§6) (4) colorimetric analysis: selecting 595 nm wavelength, reading light absorption value of each well by […] (Bio-Rad 680), recording results, plotting cell growth curve using concentration as abscissa and cell survival rate as ordinate, and calculating IC50 value of compound using Reed and Muench method.
(§7) (5) Positive control: cisplatin.

Series [2] concerns SMMC7721, human liver cancer cell strain. Briefly: IC50 test on tumor cells (MTT), SMMC7721. It is filed as cell-based. Particulars: read-out: Half Inhibitory concentrations (IC50) on human tumor cell strain growth. Here is the method:
as §1, §2, §3, §4, §5, §6, §7

For series [3], the system named is HL-60, human leukemic cell strain. Briefly: IC50 test on tumor cells (MTT), HL-60. The format is cell-based. Particulars: HL-60, MTT, 48 h, read-out: Half Inhibitory concentrations (IC50) on human tumor cell strain growth. Here is the method:
as §1, §2, §3, §4, §5, §6, §7

Series [4] concerns PANC-1, human pancreatic cancer cell strain. Briefly: IC50 test on tumor cells (MTT), PANC-1. The following applies: PANC-1, MTT, 48 h, read-out: Half Inhibitory concentrations (IC50) on human tumor cell strain growth. It is filed as cell-based. Here is the method: as §1, §2, §3, §4, §5, §6, §7
Series [5] has as its system A549, human lung cancer cell strain. Kind of series: IC50 test on tumor cells (MTT), A549. The following applies: 48 h, read-out: Half Inhibitory concentrations (IC50) on human tumor cell strain growth. It is filed as cell-based. How it is done:
as §1, §2, §3, §4, §5, §6, §7

Series [6] in a line: Solubility (qualitative description). It is filed as physicochemical.
Series [7] can be described thus: Acute toxicity test, rats. Particulars: rat, in vivo, intravenous, tail vein injection. Here is the method: (§8) Animal lines: healthy mice, rats. Age was 7-9 weeks. In the same batch of tests, the initial body weight of mice or rats should not be greater or less than the average body weight by 20%.
(§9) Administration route: tail vein injection for both rats and mice.
(§10) Measurement of median lethal dose (LD50):
(§11) Test observation: the observation was performed for one week after administered with the drug to be tested, the time of appearance and disappearance of various toxic reactions was carefully observed and recorded for each animal. The observation and recording were performed twice on the day of administering the drug to be tested, then once per day in the following days. The contents to be observed and recorded include skin, mucous membrane, coat color, eyes, respiration, circulation, behaviors of autonomic and central nervous systems, etc. Before the drug to be tested was administered, one week after the drug to be tested was administered, when the animal died, and when the test was ended, the animals were weighed to get their body weights. All animals, including dead or executed animals, were subjected to autopsy, and histopathologic examination was performed for organs with abnormal autopsy results.

The subject of series [8] is human NCI-H460 nude mouse transplanted tumor. Kind of series: Activity against nude mouse-transplanted tumors. The following applies: 10 mg/kg intravenous, 3 times per week. It is filed as in vivo, female BALB/cA nude mice. How it is done:
(§12) Test animals: female BALB/cA nude mice, 35-40 days, body weight 18-22 g, provided by Shanghai Slack, certificate no.: SCXK (Hu) 2007-0005. Divided into four groups:
Negative control group: 12 mice (intravenous injection with physiological saline, 3 times per week).
(§13) Administration group 1: 6 mice, intravenously administered with melonine C, in a dose of 20 mg/kg, 3 times per week.
(§14) Administration group 2: 6 mice, intravenously administered with melonine C, in a dose of 10 mg/kg, 3 times per week.
(§15) Administration group 3: 6 mice, intravenously administered with melonine C, in a dose of 2 mg/kg, 3 times per week.
Transplanted tumors: human NCI-H460 nude mouse transplanted tumor, established by subcutaneously inoculating human NCI-H460 cell strain to female BALB/c nude mice (from Shanghai Slack Co., Ltd.). Inoculated cell number was 3×10^6, the formed transplanted tumor after inoculation was then passaged 3 times in body of nude mice before use. […]
The well-grown tumor tissues were cut into 1.5 mm^3 pieces, inoculated into right-side armpit subcutaneously under sterile condition. The nude mouse transplanted tumore diameter was measured by vernier caliper, and the animals were grouped randomly when the tumore grew to 100-300 mm^3. […]

Series [9] is described as follows: Body weight of NCI-H460 tumor-bearing nude mice. The following applies: 20, 10 and 2 mg/kg intravenous, 3 times per week. It is filed as in vivo, female BALB/cA nude mice. How it is done:
as §12, §13, §14, §15
The well-grown tumor tissues were cut into 1.5 mm^3 pieces, inoculated into right-side armpit subcutaneously under sterile condition. The nude mouse transplanted tumore diameter was measured by vernier caliper, and the animals were grouped randomly when the tumore grew to 100-300 mm^3. The antitumor effects of the compounds to be tested were observed by measuring tumor diameters. The number of measuring tumore diameters was 3 per week, and the mice were weighed simultaneously when each measurement was conducted. Melonine C was intravenously administered in doses of 20 mg/kg, 10 mg/kg, 2 mg/kg, separately, 3 times per week.

A short description of series [10]: Acute toxicity test, observation and autopsy. The format is in vivo. The following applies: tail vein injection, immediately after dosing. How it is done: as §8, §9, §11
Series [11] is described as follows: Acute toxicity test, mice. The following applies: mouse, in vivo, intravenous, tail vein injection. How it is done: as §8, §9, §10
Maximum tolerated dose (MTD) test method: MTD refers to a dose that causes significant toxic reaction without death in animals.
as §11

Turning to `N.N.[Cl][Pt][Cl]` [Cisplatine, Cisplatin, reference compound], the IC50 in [1] was 22.5 µM; in [2] (48 h) it was 14.1 µM; in series [3], 0.75 µM; in series [4], 19.5 µM; in series [5], 26.5 µM.

Take `CCC12CCCNC3=C(C(=O)C(=O)C=C3C3CC4(CC)CCCN5CCc6c(n3c3ccccc63)C54)C3=C1N(CCC2)CC3` (centres unmarked) [Melonine A, melonine A]: the IC50 was 15.4 µM in [1] (Homo sapiens); 11.5 µM in [2] (Homo sapiens, SMMC-7721, 48 h); 2.84 µM in series [3] (Homo sapiens); greater than 40 µM in series [4] (Homo sapiens); 22.1 µM in series [5] (Homo sapiens). Moreover, the solubility in acetone entry in series [6] was “Easily soluble”. In series [6] (chloroform), the solubility in chloroform entry was “Easily soluble”. Also, in series [6], the solubility in methanol result was “Easily soluble”. Moreover, the solubility in water result in series [6] is “slightly soluble”.

Take `CCC12CCCN3CCc4c(n(c5ccccc45)C(c4cc5c(cc4O)N4CCCC6(CC)CCCN7CCC5(OC)C746)C1)C32` (centres unmarked) [Melonine B, melonine B]: the IC50 in series [1] (Homo sapiens) is 7.78 µM; in series [2] (Homo sapiens, SMMC-7721, 48 h), 7.4 µM; in [3] (Homo sapiens), 2.53 µM; in series [4] (Homo sapiens) it was 14.5 µM; in series [5] (Homo sapiens), 14.7 µM. Moreover, the solubility in acetone entry in [6] is “slightly soluble”. Further, the solubility in methanol entry in series [6] is listed as “Easily soluble”. Moreover, the solubility in water result in [6] is “slightly soluble”.

By LD50 is commonly meant the dose expected to kill half of the subjects tested. Low values mean greater toxicity, high ones lower toxicity. By MTD is commonly meant the highest dose tested that stayed within the study's limit of toxicity. Regarding `CCC12CCCN3CCc4c(n(c5ccccc45)C(c4ccc(O)c5c4NC4CCC6(CC)CCCN7CCC54C76)C1)C32` (centres unmarked) [Melonine C, melonine C], the IC50 in series [1] (Homo sapiens) was found to be 3.63 µM; in [2] (Homo sapiens, SMMC-7721, 48 h), 2.73 µM; in [3] (Homo sapiens) it was 0.66 µM; in [4] (Homo sapiens) it was 3.77 µM; in [5] (Homo sapiens) it was 3.01 µM. The solubility in acetone entry in series [6] is on record as “slightly soluble”. In addition, the solubility in methanol entry in series [6] is recorded as “easily soluble”. Moreover, the solubility in water entry in [6] is on record as “slightly soluble”. For the same compound, the LD50 at 1 week in [7] worked out at 20 mg/kg; in series [11] (mice) it was 32 mg/kg. Further, the “relative tumor proliferation rate T/C (%)” value in series [8] is 56.41%. Besides, the “effect on the body weight” value in [9] is given as “no significant effect”. In addition, the toxic reactions observed result in series [10] is on record as “accelerated breathing, ataxia, convulsions, or even died”. For the same compound, the MTD at 1 week in series [11] (printed on the mice line, read-out: MTD (maximum tolerated dose)) came out at 22 mg/kg.

`CCC12CCCN3CCc4c(n(c5ccccc45)C(c4ccc(O)c5c4N=C4CCC6(CC)CCCN7CCC45C76)C1)C32` (centres unmarked) [Melonine D, melonine D]: the IC50 was determined as 23.2 µM in series [1] (Homo sapiens); 18.1 µM in series [2] (Homo sapiens, SMMC-7721, 48 h); 2.77 µM in [3] (Homo sapiens); 23.4 µM in [4] (Homo sapiens); 11.1 µM in [5] (Homo sapiens). Besides, in series [6], the solubility in acetone entry is “slightly soluble”. Besides, the solubility in methanol result in series [6] was “Easily soluble”. In addition, the solubility in water entry in series [6] is “slightly soluble”.
